According to patent US12404269B2, “Aminoquinazolinone and aminoisoquinolinone derivatives and application thereof” (ZHEJIANG UNIVERSITY, priority 2018, dated 2025):

Columns and labels:
[1] = biological target: T1, PI3Kδ (Homo sapiens, UniProt O00329); assay: PI3Kδ molecular activity test (ADP-GLO); format: biochemical; conditions: recombinant protein
T1 construct: purchased Carna Bioscience
Procedure: (§1) Instrument: ELISA Reader Envision™ (PerkinElmer, USA)
(§2) Materials: Human recombinant PI3K and PI3Kδ proteins, purchased from Carna Bioscience; ADP-GLO kit, purchased from Promega.
(§3) Take the PI3Kα Molecular Activity Test as an Example to Describe the Text Method of the PI3K Subtypes
(§4) PI3K-α recombinant protein and substrate ATP were diluted with kinase reaction buffer (50 mM Tris-HCl, pH 7.4, 2.1 mM DTT, 0.05% Tween-20, 10 mM MgCl2). […] The specific reaction system was 2% of DMSO, 0.8 ng/μL PI3K-α, and 100 μM ATP, the positive compound control groups and control wells were set, and there were 3 multiple-wells for each concentration of each sample. After incubating for 2 hours at room temperature, ADP-GLO Reagent and Kinase Detection Reagent were added respectively, and then Envision™ was used to detect the […] readings. The activity rate of the samples were calculated by the sample readings, and the calculation formula was: activity rate=(ODcompound−ODcontrol)/(ODDMSO−ODcontro) ×100%.

[2] = Pharmacokinetic determination in SD rats, tail vein injection; format: in vivo; conditions: rat, plasma; male SD rats, intravenous, 1 mg/kg
Procedure: Healthy SD rats weighing 200±20 g, male, were randomly divided into groups with 6 rats in each group, and were administered by tail vein injection at a dose of 1 mg/kg. The blood sampling time points for pharmacokinetic analysis: 5 min, 15 min, 30 min, 2 h, 4 h, 6 h, 8 h, 24 h, and 48 h after administration. About 0.3 mL of whole blood was collected via the orbit and placed in a heparinized test tube, centrifugalized at 6000 rpm for 10 min to separate the plasma, and store at −80° C. for testing. The plasma concentrations of the each compounds were detected with an Agilent liquid mass spectrometry (LC-MS/MS, Agilent Jet Stream Electrometric spray ion), and the relevant pharmacokinetic parameters were calculated using the WinNonLin 7.0 pharmacokinetic software non-compartment model method.

[3] = system: ZR-75-1 (PTEN loss); assay: Tumor cell proliferation, CCK8 method, ZR-75-1; format: cell-based; conditions: Homo sapiens; CCK8, ZR-75-1
Procedure: (§5) The IC50 value was calculated using Graphpad Prism V5.0 software.

[4] = system: SW48 (PIK3CA mut); assay: Tumor cell proliferation, CCK8 method, SW48; format: cell-based; conditions: Homo sapiens; CCK8, SW48; read-out: SW48 (PIK3CA mut) proliferation IC50
Procedure: as §5

[5] = biological target: T2, PI3Kα (Homo sapiens, UniProt P42336); assay: PI3Kα molecular activity test (ADP-GLO); format: biochemical; conditions: for Selectivity (PI3Kδ IC50/PI3KαIC50): PI3Kδ IC50/PI3Kα IC50; for IC50: recombinant protein, 100 μM ATP, 2 hours at room temperature
T2 construct: purchased Carna Bioscience
T2 sequence (P42336 whole entry): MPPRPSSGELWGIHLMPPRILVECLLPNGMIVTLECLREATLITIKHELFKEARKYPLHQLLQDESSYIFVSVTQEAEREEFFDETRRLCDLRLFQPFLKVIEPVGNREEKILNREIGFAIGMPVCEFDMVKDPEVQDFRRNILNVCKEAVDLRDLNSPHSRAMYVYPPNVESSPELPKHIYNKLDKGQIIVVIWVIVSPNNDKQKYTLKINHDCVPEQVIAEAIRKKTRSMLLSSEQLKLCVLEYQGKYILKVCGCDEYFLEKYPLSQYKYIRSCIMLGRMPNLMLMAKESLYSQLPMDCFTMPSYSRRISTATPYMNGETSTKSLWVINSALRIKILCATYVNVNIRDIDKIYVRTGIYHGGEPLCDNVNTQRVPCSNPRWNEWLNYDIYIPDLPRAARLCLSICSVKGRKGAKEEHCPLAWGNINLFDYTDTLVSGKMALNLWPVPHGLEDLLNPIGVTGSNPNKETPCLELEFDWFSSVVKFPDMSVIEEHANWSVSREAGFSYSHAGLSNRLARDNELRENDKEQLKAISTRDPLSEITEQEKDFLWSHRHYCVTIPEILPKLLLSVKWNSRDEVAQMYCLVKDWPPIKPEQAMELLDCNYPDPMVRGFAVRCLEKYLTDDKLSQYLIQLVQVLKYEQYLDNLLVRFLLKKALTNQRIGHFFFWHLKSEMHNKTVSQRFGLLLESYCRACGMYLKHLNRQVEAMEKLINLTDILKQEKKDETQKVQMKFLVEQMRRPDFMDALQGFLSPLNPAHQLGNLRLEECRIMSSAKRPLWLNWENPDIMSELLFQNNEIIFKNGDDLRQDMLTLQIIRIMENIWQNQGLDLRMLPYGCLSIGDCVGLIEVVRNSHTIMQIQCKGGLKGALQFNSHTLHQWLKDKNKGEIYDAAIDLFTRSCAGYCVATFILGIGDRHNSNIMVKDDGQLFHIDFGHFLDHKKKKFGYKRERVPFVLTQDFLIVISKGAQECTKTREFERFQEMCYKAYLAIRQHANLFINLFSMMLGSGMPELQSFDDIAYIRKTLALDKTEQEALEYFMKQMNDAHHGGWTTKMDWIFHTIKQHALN
T2 sequence (P27986 whole entry partner): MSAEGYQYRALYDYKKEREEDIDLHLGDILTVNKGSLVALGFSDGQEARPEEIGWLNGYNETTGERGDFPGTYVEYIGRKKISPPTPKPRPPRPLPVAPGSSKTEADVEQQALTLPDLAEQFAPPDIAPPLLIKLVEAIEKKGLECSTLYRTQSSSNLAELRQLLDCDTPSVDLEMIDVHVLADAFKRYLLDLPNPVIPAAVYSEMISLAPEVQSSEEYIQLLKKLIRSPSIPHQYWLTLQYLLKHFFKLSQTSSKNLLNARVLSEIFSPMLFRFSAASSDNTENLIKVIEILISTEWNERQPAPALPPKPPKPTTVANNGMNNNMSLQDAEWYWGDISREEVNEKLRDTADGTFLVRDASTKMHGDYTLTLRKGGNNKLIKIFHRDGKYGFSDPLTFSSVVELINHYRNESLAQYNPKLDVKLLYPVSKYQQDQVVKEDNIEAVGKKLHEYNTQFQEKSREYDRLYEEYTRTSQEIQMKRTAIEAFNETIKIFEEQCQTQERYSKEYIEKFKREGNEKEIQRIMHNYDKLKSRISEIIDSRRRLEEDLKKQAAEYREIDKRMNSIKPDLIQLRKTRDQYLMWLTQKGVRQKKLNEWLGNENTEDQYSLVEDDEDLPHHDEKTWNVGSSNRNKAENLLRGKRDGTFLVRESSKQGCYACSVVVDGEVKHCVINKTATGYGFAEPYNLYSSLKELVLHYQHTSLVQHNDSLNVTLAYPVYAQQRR
Procedure: as §1, §2, §3, §4

[6] = system: KPL4 (PIK3CA mut); assay: Tumor cell proliferation, CCK8 method, KPL4; format: cell-based; conditions: CCK8, KPL4; read-out: KPL4 (PIK3CA mut) proliferation IC50
Procedure: as §5

[7] = system: MCF7 (PIK3CA mut); assay: Tumor cell proliferation, CCK8 method, MCF7; format: cell-based, human; conditions: Homo sapiens; CCK8, MCF7; read-out: MCF7 (PIK3CA mut) proliferation IC50
Procedure: as §5

T1 sequence (O00329 whole entry): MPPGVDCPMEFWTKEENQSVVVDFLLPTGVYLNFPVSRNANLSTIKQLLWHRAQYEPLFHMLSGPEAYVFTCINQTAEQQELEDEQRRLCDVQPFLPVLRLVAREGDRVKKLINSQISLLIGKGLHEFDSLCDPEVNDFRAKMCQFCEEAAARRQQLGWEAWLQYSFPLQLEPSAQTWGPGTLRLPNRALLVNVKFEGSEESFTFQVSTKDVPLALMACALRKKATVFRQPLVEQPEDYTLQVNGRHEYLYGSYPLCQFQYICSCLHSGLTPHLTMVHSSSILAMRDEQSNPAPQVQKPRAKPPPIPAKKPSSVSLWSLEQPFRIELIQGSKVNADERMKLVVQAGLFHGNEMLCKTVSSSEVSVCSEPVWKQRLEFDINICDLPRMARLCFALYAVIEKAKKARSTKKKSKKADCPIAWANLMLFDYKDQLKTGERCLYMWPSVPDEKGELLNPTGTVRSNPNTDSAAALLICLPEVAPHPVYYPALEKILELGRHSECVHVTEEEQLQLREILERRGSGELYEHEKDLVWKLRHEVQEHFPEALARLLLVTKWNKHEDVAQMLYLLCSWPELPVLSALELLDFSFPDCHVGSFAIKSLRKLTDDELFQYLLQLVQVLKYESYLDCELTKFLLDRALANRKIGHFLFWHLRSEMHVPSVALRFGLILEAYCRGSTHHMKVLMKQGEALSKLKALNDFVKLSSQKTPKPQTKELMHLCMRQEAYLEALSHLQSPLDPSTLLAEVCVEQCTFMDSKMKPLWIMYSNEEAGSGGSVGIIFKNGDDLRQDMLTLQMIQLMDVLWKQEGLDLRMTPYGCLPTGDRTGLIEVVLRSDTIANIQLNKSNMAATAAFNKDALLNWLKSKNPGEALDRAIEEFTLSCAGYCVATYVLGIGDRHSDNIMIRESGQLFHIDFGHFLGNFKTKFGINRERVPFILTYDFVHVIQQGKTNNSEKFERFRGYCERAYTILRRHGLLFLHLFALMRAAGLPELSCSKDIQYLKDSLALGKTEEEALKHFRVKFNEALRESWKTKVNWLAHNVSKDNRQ
T1 sequence (P27986 whole entry partner): as the sequence (P27986 whole entry partner) above

## COc1c(OCCCN2CCOCC2)ccc2c(=O)n(C)c(NC(=O)c3cnc(N)nc3)nc12 [8a-1]
[1]
  IC50: < 20 nM
[2]
  Vd: 4.2 L/kg
  clearance: 33.3 mL/min/kg
  half-life: 5.3 h
[3]
  IC50: < 20 nM
[4]
  IC50: < 20 nM
[5]
  Selectivity (PI3Kδ IC50/PI3KαIC50): II (“II” represents 5-10 times)
  IC50: < 20 nM
[6]
  IC50: < 20 nM
[7]
  IC50: < 20 nM

## COc1c(OCC(N)=O)ccc2c(=O)n(C)c(NC(=O)c3cnc(N)nc3)nc12 [8a-2]
[1]
  IC50: < 20 nM
[2]
  Vd: 3.2 L/kg
  clearance: 30 mL/min/kg
  half-life: 4.9 h
[3]
  IC50: < 20 nM
[4]
  IC50: < 20 nM
[5]
  Selectivity (PI3Kδ IC50/PI3KαIC50): III (“III” represents >10 times)
  IC50: < 20 nM
[6]
  IC50: < 20 nM
[7]
  IC50: < 20 nM

## COc1c(OCCC(N)=O)ccc2c(=O)n(C)c(NC(=O)c3cnc(N)nc3)cc12 [8a′-3]
[1]
  IC50: 20 to 200 nM
[2]
  Vd: 2.9 L/kg
  clearance: 41.7 mL/min/kg
  half-life: 6.7 h
[5]
  Selectivity (PI3Kδ IC50/PI3KαIC50): III (“III” represents >10 times)
  IC50: < 20 nM

## CCn1c(NC(=O)c2cnc(N)nc2)nc2c(OC)c(OCCCN3CCOCC3)ccc2c1=O [8b-1]
[2]
  Vd: 3.8 L/kg
  clearance: 31.7 mL/min/kg
  half-life: 5.2 h
[3]
  IC50: < 20 nM
[4]
  IC50: < 20 nM
[6]
  IC50: < 20 nM
[7]
  IC50: < 20 nM

## CCn1c(NC(=O)c2cnc(N)nc2)nc2c(OC)c(OCCCC(N)=O)ccc2c1=O [8b-9]
[1]
  IC50: 20 to 200 nM
[2]
  Vd: 3.9 L/kg
  clearance: 26.7 mL/min/kg
  half-life: 4.2 h
[5]
  Selectivity (PI3Kδ IC50/PI3KαIC50): III (“III” represents >10 times)
  IC50: < 20 nM

## CCn1c(NC(=O)c2cnc(N)nc2)cc2c(OC)c(OCCCN3CCOCC3)ccc2c1=O [8b′-1]
[1]
  IC50: < 20 nM
[3]
  IC50: 20 to 200 nM
[4]
  IC50: 20 to 200 nM
[5]
  Selectivity (PI3Kδ IC50/PI3KαIC50): I (“I” represents <5 times)
  IC50: < 20 nM
[6]
  IC50: 20 to 200 nM
[7]
  IC50: < 20 nM

## CCn1c(NC(=O)c2cnc(N)nc2)cc2c(OC)c(OCC(N)=O)ccc2c1=O [8b′-2]
[1]
  IC50: 20 to 200 nM
[3]
  IC50: 20 to 200 nM
[4]
  IC50: 20 to 200 nM
[5]
  Selectivity (PI3Kδ IC50/PI3KαIC50): III (“III” represents >10 times)
  IC50: < 20 nM
[6]
  IC50: 20 to 200 nM
[7]
  IC50: < 20 nM

## Cn1c(NC(=O)c2cnc(N)nc2)nc2c3c(ccc2c1=O)OCCCCO3 [14a-4]
[1]
  IC50: < 20 nM
[3]
  IC50: 200 to 1000 nM
[4]
  IC50: 200 to 1000 nM
[5]
  Selectivity (PI3Kδ IC50/PI3KαIC50): I (“I” represents <5 times)
  IC50: < 20 nM
[6]
  IC50: 200 to 1000 nM
[7]
  IC50: 20 to 200 nM

## Cn1c(NC(=O)c2cnc(N)nc2)nc2c3c(ccc2c1=O)OCCCCCO3 [14a-5]
[1]
  IC50: 20 to 200 nM
[3]
  IC50: 200 to 1000 nM
[4]
  IC50: 200 to 1000 nM
[5]
  Selectivity (PI3Kδ IC50/PI3KαIC50): II (“II” represents 5-10 times)
  IC50: < 20 nM
[6]
  IC50: 200 to 1000 nM
[7]
  IC50: 20 to 200 nM

## Cn1c(NC(=O)c2cnc(N)nc2)nc2c3c(ccc2c1=O)OCCCCCCO3 [14a-6]
[1]
  IC50: 20 to 200 nM
[3]
  IC50: 200 to 1000 nM
[4]
  IC50: 200 to 1000 nM
[5]
  Selectivity (PI3Kδ IC50/PI3KαIC50): II (“II” represents 5-10 times)
  IC50: < 20 nM
[6]
  IC50: 200 to 1000 nM
[7]
  IC50: 20 to 200 nM

## Cn1c(NC(=O)c2cnc(N)nc2)nc2c3c(ccc2c1=O)OCCCCCCCO3 [14a-7]
[1]
  IC50: 20 to 200 nM
[3]
  IC50: 200 to 1000 nM
[4]
  IC50: 200 to 1000 nM
[5]
  Selectivity (PI3Kδ IC50/PI3KαIC50): II (“II” represents 5-10 times)
  IC50: < 20 nM
[6]
  IC50: 200 to 1000 nM
[7]
  IC50: 20 to 200 nM

## Cn1c(NC(=O)c2cnc(N)nc2)nc2c3c(ccc2c1=O)OCCCCCCCCO3 [14a-8]
[1]
  IC50: < 20 nM
[3]
  IC50: 20 to 200 nM
[4]
  IC50: 20 to 200 nM
[5]
  Selectivity (PI3Kδ IC50/PI3KαIC50): I (“I” represents <5 times)
  IC50: < 20 nM
[6]
  IC50: 20 to 200 nM
[7]
  IC50: < 20 nM

## CCn1c(NC(=O)c2cnc(N)nc2)nc2c3c(ccc2c1=O)OCCCO3 [14b-3]
[2]
  Vd: 2.4 L/kg
  clearance: 38.3 mL/min/kg
  half-life: 4.7 h

## CCn1c(NC(=O)c2cnc(N)nc2)nc2c3c(ccc2c1=O)OCCCCO3 [14b-4]
[1]
  IC50: 20 to 200 nM
[3]
  IC50: 200 to 1000 nM
[4]
  IC50: 200 to 1000 nM
[5]
  Selectivity (PI3Kδ IC50/PI3KαIC50): I (“I” represents <5 times)
  IC50: 20 to 200 nM
[6]
  IC50: 20 to 200 nM
[7]
  IC50: < 20 nM

## CCn1c(NC(=O)c2cnc(N)nc2)nc2c3c(ccc2c1=O)OCCCCCCCCO3 [14b-8]
[1]
  IC50: < 20 nM
[3]
  IC50: 200 to 1000 nM
[4]
  IC50: 200 to 1000 nM
[5]
  Selectivity (PI3Kδ IC50/PI3KαIC50): I (“I” represents <5 times)
  IC50: < 20 nM
[6]
  IC50: 20 to 200 nM
[7]
  IC50: < 20 nM

## CCn1c(NC(=O)c2cnc(N)nc2)nc2c3c(ccc2c1=O)OCCOCCOCCOCCO3 [14b-11]
[1]
  IC50: 20 to 200 nM
[3]
  IC50: 200 to 1000 nM
[4]
  IC50: 200 to 1000 nM
[5]
  Selectivity (PI3Kδ IC50/PI3KαIC50): I (“I” represents <5 times)
  IC50: 20 to 200 nM
[6]
  IC50: 20 to 200 nM
[7]
  IC50: < 20 nM

## CCn1c(NC(=O)c2cnc(N)nc2)cc2c3c(ccc2c1=O)OCO3 [14b′-1]
[2]
  Vd: 3.9 L/kg
  clearance: 65 mL/min/kg
  half-life: 4.2 h

## CCn1c(NC(=O)c2cnc(N)nc2)cc2c3c(ccc2c1=O)OCCOCCOCCO3 [14b′-6]
[1]
  IC50: < 20 nM
[3]
  IC50: 20 to 200 nM
[4]
  IC50: 20 to 200 nM
[5]
  Selectivity (PI3Kδ IC50/PI3KαIC50): I (“I” represents <5 times)
  IC50: < 20 nM
[6]
  IC50: 20 to 200 nM
[7]
  IC50: < 20 nM
